Experimental findings from US8697096B2, “Tape preparation comprising etodolac in ionic liquid form” (priority 2007, dated 2014) are described below.

The nature of data set [1]: physchem.
Data set [2] in a line: Tissue concentration of etodolac by administration route (oral vs transdermal), leg muscle of rat. Type of data set: in vivo. Particulars: 12 mg/kg etodolac suspended in CMC, FIG. 8. The procedure:
In the case of oral administration, four male SD rats (5 weeks old) are used as a group and 12 mg/kg of etodolac suspended in CMC is forced to be taken in by using a probe. The dose is fixed around about 1.1˜1.5 mg/rat. After a lapse of a certain period of time since the forced feeding, an animal is killed by blood removal under anesthesia. Later the leg was amputated, divided into skin and other tissues and the drug concentrations in the muscle tissue and plasma were assayed.
The applied area of the sample was adjusted so that transdermally available amount of etodolac was about 0.7 mg/rat when applied for 24 hours. After a lapse of a certain period of time since the application of the sample, an animal is killed by blood removal under anesthesia. Later the leg was amputated, divided into skin and other tissues and the drug concentrations in the muscle tissue and plasma were assayed.

A word on the pKa: it is the pH at which an ionisable group is half protonated. The low end stands for a stronger acid or weaker base, the high end for a weaker acid or stronger base. The compound `CC(O)CN(CC(C)O)CC(C)O` (stereo not drawn) [triisopropanolamine] registered a pKa in data set [1] of 8.03. With `CCc1cccc2c3c([nH]c12)C(CC)(CC(=O)O)OCC3` (stereo not drawn) [etodolac], the “drug-concentration in the muscle tissue” value in data set [2] is “not increased so much”. The pKa in data set [1] was 4.65.
